This is an account of results in ChEMBL document CHEMBL4418478, “2,4,5-trisubstituted thiazole compounds,preparation methods,pharmaceutical compositions and medical uses thereof” (2016).

Sequence of Phospholipid transfer protein (Homo sapiens) (P55058 whole entry): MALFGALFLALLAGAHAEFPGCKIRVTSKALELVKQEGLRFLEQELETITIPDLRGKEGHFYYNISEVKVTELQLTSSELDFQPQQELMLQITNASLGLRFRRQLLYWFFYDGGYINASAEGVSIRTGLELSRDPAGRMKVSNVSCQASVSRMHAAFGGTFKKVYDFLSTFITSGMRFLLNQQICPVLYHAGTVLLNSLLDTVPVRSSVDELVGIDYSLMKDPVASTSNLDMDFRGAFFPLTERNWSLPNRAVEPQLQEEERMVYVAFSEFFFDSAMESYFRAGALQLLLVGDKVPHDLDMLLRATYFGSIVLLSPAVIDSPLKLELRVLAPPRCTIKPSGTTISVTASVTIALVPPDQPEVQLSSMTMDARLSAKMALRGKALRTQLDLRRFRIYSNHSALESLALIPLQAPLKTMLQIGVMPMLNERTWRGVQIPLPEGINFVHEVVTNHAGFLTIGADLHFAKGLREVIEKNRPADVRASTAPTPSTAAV

The assay concerns the target Phospholipid transfer protein (Homo sapiens) (UniProt P55058). Nature of the assay: Inhibition of PLTP in plasma (unknown origin) at 150 uM using liver phospholipid, phospholipids liposome and HDL and TSE incubated for 1 hr relative to control.
In turn, `COc1ccc(C(=O)Nc2nc(-c3ccc(O)cc3)c(Cc3ccccc3)s2)cc1` displayed an inhibition of 0%.

Take `COc1ccc(-c2nc(N)sc2CC2CCCCC2)cc1`: the inhibition was 0%.

The molecule `O=C(Nc1nc(-c2ccc(O)cc2)c(Cc2ccccc2)s1)c1ccc(Cl)cc1` gave an inhibition of 0%.

A word on the inhibition: it is the share of the control response that was lost under treatment.
